{"source": "ChEMBL document CHEMBL3865829", "about": "(Eur J Med Chem, 2016)", "key": {"[1]": {"experiment": "Antitumor activity against human Bel7404 cells xenografted in BALB/c nude mouse assessed as tumor volume at 50 mg/kg, ig administered via oral gavage once daily for 14 consecutive days measured on day 1 (reference value: 101.62 +/- 26.48 mm3)", "assay_type": "functional, BEL-7404"}, "[2]": {"experiment": "Antitumor activity against human Bel7404 cells xenografted in BALB/c nude mouse assessed as tumor volume at 50 mg/kg, ig administered via oral gavage once daily for 14 consecutive days measured on day 3 (reference value: 176.17 +/- 57.63 mm3)", "assay_type": "functional, BEL-7404"}, "[3]": {"experiment": "Antitumor activity against human Bel7404 cells xenografted in BALB/c nude mouse assessed as tumor volume at 50 mg/kg, ig administered via oral gavage once daily for 14 consecutive days measured on day 7 (reference value: 284.68 +/- 74.36 mm3)", "assay_type": "functional, BEL-7404"}, "[4]": {"experiment": "Antitumor activity against human Bel7404 cells xenografted in BALB/c nude mouse assessed as tumor volume at 50 mg/kg, ig administered via oral gavage once daily for 14 consecutive days measured on day 10 (reference value: 425.92 +/- 102.32 mm3)", "assay_type": "functional, BEL-7404"}, "[5]": {"experiment": "Antitumor activity against human Bel7404 cells xenografted in BALB/c nude mouse assessed as tumor volume at 50 mg/kg, ig administered via oral gavage once daily for 14 consecutive days measured on day 14 (reference value: 589.54 +/- 162.22 mm3)", "assay_type": "functional, BEL-7404"}, "[6]": {"experiment": "Antitumor activity against human Bel7404 cells xenografted in BALB/c nude mouse assessed as tumor volume at 50 mg/kg, ig administered via oral gavage once daily for 14 consecutive days measured on day 17 (reference value: 747.40 +/- 169.75 mm3)", "assay_type": "functional, BEL-7404"}, "[7]": {"experiment": "Antitumor activity against human Bel7404 cells xenografted in BALB/c nude mouse assessed as tumor growth inhibition at 50 mg/kg, ig administered via oral gavage once daily for 14 consecutive days measured on day 29", "assay_type": "functional", "conditions": "BEL-7404, po, 696 h, read-out: TGI"}, "[8]": {"experiment": "Antitumor activity against human A549 cells xenografted in BALB/c nude mouse assessed as tumor growth inhibition at 3 mg/kg, ig administered via oral gavage once daily for 9 consecutive days followed by subsequent dosing on days 13 and 14 measured on day 30 relative to control", "assay_type": "functional", "conditions": "720 h, read-out: TGI"}, "[9]": {"experiment": "Cytotoxicity against human A549 cells after 72 hrs by MTT assay", "assay_type": "functional, cell-based", "conditions": "A549, 72 h"}, "[10]": {"experiment": "Cytotoxicity against human U87MG cells after 72 hrs by MTT assay", "assay_type": "functional, cell-based, U-87MG ATCC", "conditions": "U-87 MG"}, "[11]": {"experiment": "Aqueous solubility of the compound in pH 1 simulated gastric fluid", "assay_type": "ADME"}, "[12]": {"experiment": "Antitumor activity against human A549 cells xenografted in BALB/c nude mouse assessed as tumor volume at 3 mg/kg, ig administered via oral gavage once daily for 9 consecutive days followed by subsequent dosing on day 13 and 14 measured on day 15 (reference value: 2071.51 +/- 682.84 mm3)", "assay_type": "functional"}, "[13]": {"experiment": "Antitumor activity against human A549 cells xenografted in BALB/c nude mouse assessed as tumor volume at 3 mg/kg, ig administered via oral gavage once daily for 9 consecutive days followed by subsequent dosing on day 13 and 14 measured on day 18 (reference value: 3045.91 +/- 854.27 mm3)", "assay_type": "functional"}, "Mus musculus [14]": {"test_system": "Mus musculus", "experiment": "Toxicity in nude BALB/c mouse xenografted with human A549 cells assessed as body weight at 3 mg/kg, ig administered via oral gavage once daily for 9 consecutive days followed by subsequent dosing on day 13 and 14 measured on day 1 (reference value: 24.38 +/- 0.76 g)", "assay_type": "organism-based", "conditions": "in vivo"}, "Mus musculus [15]": {"test_system": "Mus musculus", "experiment": "Toxicity in nude BALB/c mouse xenografted with human A549 cells assessed as body weight at 3 mg/kg, ig administered via oral gavage once daily for 9 consecutive days followed by subsequent dosing on day 13 and 14 measured on day 4 (reference value: 24.77 +/- 0.93 g)", "assay_type": "organism-based", "conditions": "in vivo"}, "Mus musculus [16]": {"test_system": "Mus musculus", "experiment": "Toxicity in nude BALB/c mouse xenografted with human A549 cells assessed as body weight at 3 mg/kg, ig administered via oral gavage once daily for 9 consecutive days followed by subsequent dosing on day 13 and 14 measured on day 8 (reference value: 25.66 +/- 1.04 g)", "assay_type": "organism-based", "conditions": "in vivo"}, "Mus musculus [17]": {"test_system": "Mus musculus", "experiment": "Toxicity in nude BALB/c mouse xenografted with human A549 cells assessed as body weight at 3 mg/kg, ig administered via oral gavage once daily for 9 consecutive days followed by subsequent dosing on day 13 and 14 measured on day 11 (reference value: 26.11 +/- 1.06 g)", "assay_type": "organism-based", "conditions": "in vivo"}, "Mus musculus [18]": {"test_system": "Mus musculus", "experiment": "Toxicity in nude BALB/c mouse xenografted with human A549 cells assessed as body weight at 3 mg/kg, ig administered via oral gavage once daily for 9 consecutive days followed by subsequent dosing on day 13 and 14 measured on day 15 (reference value: 27.12 +/- 1.43 g)", "assay_type": "organism-based", "conditions": "in vivo"}, "Mus musculus [19]": {"test_system": "Mus musculus", "experiment": "Toxicity in nude BALB/c mouse xenografted with human A549 cells assessed as body weight at 3 mg/kg, ig administered via oral gavage once daily for 9 consecutive days followed by subsequent dosing on day 13 and 14 measured on day 18 (reference value: 27.75 +/- 1.41 g)", "assay_type": "organism-based", "conditions": "in vivo"}, "[20]": {"experiment": "Antitumor activity against human A549 cells xenografted in BALB/c nude mouse assessed as tumor volume at 3 mg/kg, ig administered via oral gavage once daily for 9 consecutive days followed by subsequent dosing on day 13 and 14 measured on day 1 (reference value: 156.87 +/- 22.32 mm3)", "assay_type": "functional"}, "[21]": {"experiment": "Antitumor activity against human A549 cells xenografted in BALB/c nude mouse assessed as tumor volume at 3 mg/kg, ig administered via oral gavage once daily for 9 consecutive days followed by subsequent dosing on day 13 and 14 measured on day 4 (reference value: 419.55 +/- 104.72 mm3)", "assay_type": "functional"}, "[22]": {"experiment": "Antitumor activity against human A549 cells xenografted in BALB/c nude mouse assessed as tumor volume at 3 mg/kg, ig administered via oral gavage once daily for 9 consecutive days followed by subsequent dosing on day 13 and 14 measured on day 8 (reference value: 840.07 +/- 205.19 mm3)", "assay_type": "functional"}, "[23]": {"experiment": "Antitumor activity against human A549 cells xenografted in BALB/c nude mouse assessed as tumor volume at 3 mg/kg, ig administered via oral gavage once daily for 9 consecutive days followed by subsequent dosing on day 13 and 14 measured on day 11 (reference value: 1327.66 +/- 404.92 mm3)", "assay_type": "functional"}, "cells": {"experiment": "cells", "conditions": "Homo sapiens, HCT-116, 72 h"}}, "data": [{"smiles": "CNC(=O)c1cc(Oc2ccc(NC(=O)Nc3ccc(Cl)c(C(F)(F)F)c3)cc2)ccn1", "note": "[SORAFENIB]", "values": [{"measurement": "Activity", "setting": "[1]", "value": 97.11, "unit": "mm3"}, {"measurement": "Activity", "setting": "[2]", "value": 136.23, "unit": "mm3"}, {"measurement": "Activity", "setting": "[3]", "value": 206.94, "unit": "mm3"}, {"measurement": "Activity", "setting": "[4]", "value": 257.88, "unit": "mm3"}, {"measurement": "Activity", "setting": "[5]", "value": 334.93, "unit": "mm3"}, {"measurement": "Activity", "setting": "[6]", "value": 413.79, "unit": "mm3"}, {"measurement": "inhibition in vivo at 50 mg/kg", "setting": "[7]", "value": 43.8, "unit": "%"}]}, {"smiles": "COc1ncc(-c2ccc3nccc(-c4ccnnc4)c3c2)cc1NS(=O)(=O)c1ccc(F)cc1F", "note": "[OMIPALISIB]", "values": [{"measurement": "inhibition in vivo at 3 mg/kg", "setting": "[8]", "value": 65.9, "unit": "%"}, {"measurement": "IC50", "setting": "[9]", "value": 140, "unit": "nM"}, {"measurement": "IC50", "setting": "[10]", "value": 537, "unit": "nM"}, {"measurement": "solubility", "setting": "[11]", "value": 200, "unit": "µg/mL"}, {"measurement": "Activity", "setting": "[12]", "value": 669.43, "unit": "mm3"}, {"measurement": "Activity", "setting": "[13]", "value": 968.24, "unit": "mm3"}, {"measurement": "Activity", "setting": "Mus musculus [14]", "value": 24.7, "unit": "g"}, {"measurement": "Activity", "setting": "Mus musculus [15]", "value": 24.55, "unit": "g"}, {"measurement": "Activity", "setting": "Mus musculus [16]", "value": 22.98, "unit": "g"}, {"measurement": "Activity", "setting": "Mus musculus [17]", "value": 21.63, "unit": "g"}, {"measurement": "Activity", "setting": "Mus musculus [18]", "value": 20.92, "unit": "g"}, {"measurement": "Activity", "setting": "Mus musculus [19]", "value": 22.22, "unit": "g"}, {"measurement": "Activity", "setting": "[20]", "value": 146.36, "unit": "mm3"}, {"measurement": "Activity", "setting": "[21]", "value": 261.5, "unit": "mm3"}, {"measurement": "Activity", "setting": "[22]", "value": 396.45, "unit": "mm3"}, {"measurement": "Activity", "setting": "[23]", "value": 520.69, "unit": "mm3"}, {"measurement": "IC50", "setting": "cells", "value": 154, "unit": "nM"}]}]}
